Assay results reported in patent publication US6339042B1, “Herbicidal N-cyclohexadienyl heteroaryloxyacetamides” (American Cyanamid Co., priority 1999, dated 2002).

Legend:
Conditions in all cases: three weeks after treatment
Hordeum vulgare [1] = test: Pre-emergence herbicidal evaluation, HORVW; format: in vivo
Description: (§1) The treated pots are then placed on greenhouse benches, watered and cared for in accordance with conventional greenhouse procedures.

Oryza sativum [2] = test: Pre-emergence herbicidal evaluation, ORYSA; format: in vivo
Description: as §1

Alopecurus myosuroides [3] = test: Pre-emergence herbicidal evaluation, ALOMY; format: in vivo
Description: as §1

Setaria viridis [4] = test: Pre-emergence herbicidal evaluation, SETVI; format: in vivo
Description: as §1

Alopecurus myosuroides [5] = test: Post-emergence herbicidal evaluation, ALOMY
Description: The compounds of the invention are tested for pre- and post-emergence herbicidal activity.
(§2) Each pot is examined three weeks after treatment and phytotoxicity is assessed according to the rating system set forth below.
(§3) These acetone solutions are diluted with water and the resulting formulations applied at dosage levels equivalent of about 0.4 to 0.1 kg per hectare of test compound per pot. After spraying the plants are placed on greenhouse benches and are cared for in the usual manner, commensurate with conventional greenhouse practices.

Amaranthus tuberculatus [6] = test: Pre-emergence herbicidal evaluation, AMATA; format: in vivo
Description: as §1

Hordeum vulgare [7] = test: Post-emergence herbicidal evaluation, HORVW
Description: as §2, §3

Lolium perenne [8] = test: Post-emergence herbicidal evaluation, LOLPE
Setaria viridis [9] = test: Post-emergence herbicidal evaluation, SETVI
Apera spica venti [10] = test: Pre-emergence herbicidal evaluation, APESV; format: in vivo
Description: as §1

Glycine max [11] = test: Pre-emergence herbicidal evaluation, GLXMA; format: in vivo
Description: as §1

Zea mays [12] = test: Pre-emergence herbicidal evaluation, ZEAMX; format: in vivo
Description: as §1

Oryza sativum [13] = test: Post-emergence herbicidal evaluation, ORYSA
Echinochloa crus-galli [14] = test: Post-emergence herbicidal evaluation, ECHCG
Triticum aestivum [15] = test: Post-emergence herbicidal evaluation, TRZAW
Lolium perenne [16] = test: Pre-emergence herbicidal evaluation, LOLPE; format: in vivo
Description: as §1

Amaranthus tuberculatus [17] = test: Post-emergence herbicidal evaluation, AMATA; format: in vivo
Glycine max [18] = test: Post-emergence herbicidal evaluation, GLXMA
Description: as §2, §3

Zea mays [19] = test: Post-emergence herbicidal evaluation, ZEAMX
Galium aparine = test: Post-emergence herbicidal evaluation, GALAP
Triticum aestivum [20] = test: Pre-emergence herbicidal evaluation, TRZAW; format: in vivo
Description: as §1

Echinochloa crus-galli [21] = test: Pre-emergence herbicidal evaluation, ECHCG; format: in vivo
Description: as §1

Apera spica venti [22] = test: Post-emergence herbicidal evaluation, APESV

Structure (SMILES): CCc1nnc(OCC(=O)N(CC)C2=CC(C)(C)CC(C)=C2)s1 [Example 6]
- phytotoxicity rating HORVW (Hordeum vulgare [1]; 0.100 kg/ha): 0 (0 - No effect)
- phytotoxicity rating HORVW (Hordeum vulgare [1]; 0.200 kg/ha): 0 (0 - No effect)
- phytotoxicity rating HORVW (Hordeum vulgare [1]; 0.400 kg/ha): 1 (1 - Trace effect)
- phytotoxicity rating HORVW (Hordeum vulgare [1]; 0.800 kg/ha): 3 (3 - Moderate effect)
- phytotoxicity rating ORYSA (Oryza sativum [2]; 0.100 kg/ha): 0 (0 - No effect)
- phytotoxicity rating ORYSA (Oryza sativum [2]; 0.200 kg/ha): 0 (0 - No effect)
- phytotoxicity rating ORYSA (Oryza sativum [2]; 0.400 kg/ha): 3 (3 - Moderate effect)
- phytotoxicity rating ORYSA (Oryza sativum [2]; 0.800 kg/ha): 7 (7 - Good herbicidal effect)
- phytotoxicity rating ALOMY (Alopecurus myosuroides [3]; 0.200 kg/ha): 5 (5 - Definite injury)
- phytotoxicity rating ALOMY (Alopecurus myosuroides [3]; 0.400 kg/ha): 6 (6 - Herbicidal effect)
- phytotoxicity rating ALOMY (Alopecurus myosuroides [3]; 0.800 kg/ha): 9 (9 - Complete kill)
- phytotoxicity rating SETVI (Setaria viridis [4]; 0.200 kg/ha): 5 (5 - Definite injury)
- phytotoxicity rating SETVI (Setaria viridis [4]; 0.400 kg/ha): 8 (8 - Approaching complete kill)
- phytotoxicity rating SETVI (Setaria viridis [4]; 0.800 kg/ha): 9 (9 - Complete kill)
- phytotoxicity rating ALOMY (Alopecurus myosuroides [5]; 0.100 kg/ha): 0 (0 - No effect)
- phytotoxicity rating ALOMY (Alopecurus myosuroides [5]; 0.200 kg/ha): 4 (4 - Injury)
- phytotoxicity rating ALOMY (Alopecurus myosuroides [5]; 0.400 kg/ha): 8 (8 - Approaching complete kill)
- phytotoxicity rating AMATA (Amaranthus tuberculatus [6]; 0.100 kg/ha): 0 (0 - No effect)
- phytotoxicity rating AMATA (Amaranthus tuberculatus [6]; 0.200 kg/ha): 0 (0 - No effect)
- phytotoxicity rating AMATA (Amaranthus tuberculatus [6]; 0.400 kg/ha): 0 (0 - No effect)
- phytotoxicity rating AMATA (Amaranthus tuberculatus [6]; 0.800 kg/ha): 5 (5 - Definite injury)
- phytotoxicity rating HORVW (Hordeum vulgare [7]; 0.100 kg/ha): 0 (0 - No effect)
- phytotoxicity rating HORVW (Hordeum vulgare [7]; 0.200 kg/ha): 0 (0 - No effect)
- phytotoxicity rating HORVW (Hordeum vulgare [7]; 0.400 kg/ha): 0 (0 - No effect)
- phytotoxicity rating LOLPE (Lolium perenne [8]; 0.100 kg/ha): 0 (0 - No effect)
- phytotoxicity rating LOLPE (Lolium perenne [8]; 0.200 kg/ha): 0 (0 - No effect)
- phytotoxicity rating LOLPE (Lolium perenne [8]; 0.400 kg/ha): 0 (0 - No effect)
- phytotoxicity rating SETVI (Setaria viridis [9]; 0.100 kg/ha): 0 (0 - No effect)
- phytotoxicity rating SETVI (Setaria viridis [9]; 0.200 kg/ha): 0 (0 - No effect)
- phytotoxicity rating SETVI (Setaria viridis [9]; 0.400 kg/ha): 0 (0 - No effect)
- phytotoxicity rating APESV (Apera spica venti [10]; 0.100 kg/ha): 0 (0 - No effect)
- phytotoxicity rating APESV (Apera spica venti [10]; 0.200 kg/ha): 0 (0 - No effect)
- phytotoxicity rating APESV (Apera spica venti [10]; 0.400 kg/ha): 0 (0 - No effect)
- phytotoxicity rating APESV (Apera spica venti [10]; 0.800 kg/ha): 9 (9 - Complete kill)
- phytotoxicity rating GLXMA (Glycine max [11]; 0.100 kg/ha): 0 (0 - No effect)
- phytotoxicity rating GLXMA (Glycine max [11]; 0.200 kg/ha): 0 (0 - No effect)
- phytotoxicity rating GLXMA (Glycine max [11]; 0.400 kg/ha): 0 (0 - No effect)
- phytotoxicity rating GLXMA (Glycine max [11]; 0.800 kg/ha): 0 (0 - No effect)
- phytotoxicity rating ZEAMX (Zea mays [12]; 0.100 kg/ha): 0 (0 - No effect)
- phytotoxicity rating ZEAMX (Zea mays [12]; 0.200 kg/ha): 0 (0 - No effect)
- phytotoxicity rating ZEAMX (Zea mays [12]; 0.400 kg/ha): 0 (0 - No effect)
- phytotoxicity rating ZEAMX (Zea mays [12]; 0.800 kg/ha): 0 (0 - No effect)
- phytotoxicity rating ORYSA (Oryza sativum [13]; 0.100 kg/ha): 0 (0 - No effect)
- phytotoxicity rating ORYSA (Oryza sativum [13]; 0.200 kg/ha): 1 (1 - Trace effect)
- phytotoxicity rating ORYSA (Oryza sativum [13]; 0.400 kg/ha): 2 (2 - Slight effect)
- phytotoxicity rating ECHCG (Echinochloa crus-galli [14]; 0.100 kg/ha): 0 (0 - No effect)
- phytotoxicity rating ECHCG (Echinochloa crus-galli [14]; 0.200 kg/ha): 0 (0 - No effect)
- phytotoxicity rating ECHCG (Echinochloa crus-galli [14]; 0.400 kg/ha): 0 (0 - No effect)
- phytotoxicity rating TRZAW (Triticum aestivum [15]; 0.100 kg/ha): 0 (0 - No effect)
- phytotoxicity rating TRZAW (Triticum aestivum [15]; 0.200 kg/ha): 0 (0 - No effect)
- phytotoxicity rating TRZAW (Triticum aestivum [15]; 0.400 kg/ha): 1 (1 - Trace effect)
- phytotoxicity rating LOLPE (Lolium perenne [16]; 0.100 kg/ha): 0 (0 - No effect)
- phytotoxicity rating LOLPE (Lolium perenne [16]; 0.200 kg/ha): 0 (0 - No effect)
- phytotoxicity rating LOLPE (Lolium perenne [16]; 0.400 kg/ha): 5 (5 - Definite injury)
- phytotoxicity rating LOLPE (Lolium perenne [16]; 0.800 kg/ha): 7 (7 - Good herbicidal effect)
- phytotoxicity rating AMATA (Amaranthus tuberculatus [17]; 0.100 kg/ha): 0 (0 - No effect)
- phytotoxicity rating AMATA (Amaranthus tuberculatus [17]; 0.200 kg/ha): 0 (0 - No effect)
- phytotoxicity rating AMATA (Amaranthus tuberculatus [17]; 0.400 kg/ha): 0 (0 - No effect)
- phytotoxicity rating GLXMA (Glycine max [18]; 0.100 kg/ha): 3 (3 - Moderate effect)
- phytotoxicity rating GLXMA (Glycine max [18]; 0.200 kg/ha): 4 (4 - Injury)
- phytotoxicity rating GLXMA (Glycine max [18]; 0.400 kg/ha): 4 (4 - Injury)
- phytotoxicity rating ZEAMX (Zea mays [19]; 0.100 kg/ha): 0 (0 - No effect)
- phytotoxicity rating ZEAMX (Zea mays [19]; 0.200 kg/ha): 0 (0 - No effect)
- phytotoxicity rating ZEAMX (Zea mays [19]; 0.400 kg/ha): 0 (0 - No effect)
- phytotoxicity rating GALAP (Galium aparine; 0.100 kg/ha): 0 (0 - No effect)
- phytotoxicity rating GALAP (Galium aparine; 0.200 kg/ha): 0 (0 - No effect)
- phytotoxicity rating GALAP (Galium aparine; 0.400 kg/ha): 4 (4 - Injury)
- phytotoxicity rating TRZAW (Triticum aestivum [20]; 0.100 kg/ha): 0 (0 - No effect)
- phytotoxicity rating TRZAW (Triticum aestivum [20]; 0.200 kg/ha): 0 (0 - No effect)
- phytotoxicity rating TRZAW (Triticum aestivum [20]; 0.400 kg/ha): 0 (0 - No effect)
- phytotoxicity rating TRZAW (Triticum aestivum [20]; 0.800 kg/ha): 2 (2 - Slight effect)
- phytotoxicity rating ECHCG (Echinochloa crus-galli [21]; 0.100 kg/ha): 3 (3 - Moderate effect)
- phytotoxicity rating ECHCG (Echinochloa crus-galli [21]; 0.200 kg/ha): 6 (6 - Herbicidal effect)
- phytotoxicity rating ECHCG (Echinochloa crus-galli [21]; 0.400 kg/ha): 8 (8 - Approaching complete kill)
- phytotoxicity rating ECHCG (Echinochloa crus-galli [21]; 0.800 kg/ha): 9 (9 - Complete kill)
- phytotoxicity rating APESV (Apera spica venti [22]; 0.100 kg/ha): 0 (0 - No effect)
- phytotoxicity rating APESV (Apera spica venti [22]; 0.200 kg/ha): 0 (0 - No effect)
- phytotoxicity rating APESV (Apera spica venti [22]; 0.400 kg/ha): 1 (1 - Trace effect)
